Data published in ChEMBL document CHEMBL1201862, “PubChem BioAssay data set” (2004).
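Assay format: 96-well plates, 48-hour exposure. Here, GI50 denotes the concentration required for 50% inhibition of growth.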 Activity calls are given as the source filed them. Rule as the data show it: active = GI50 up to about 1.1 µM and inactive = higher.

How the values were obtained:
Assay in all cases: DTP human tumour cell line panel, 48 h
[1] = test system: 786-0
[2] = test system: A498
[3] = test system: A549
[4] = test system: ACHN
[5] = test system: BT-549
[6] = test system: CAKI-1
[7] = test system: CCRF-CEM
[8] = test system: COLO 205
[9] = test system: DU-145
[10] = test system: EKVX
[11] = test system: HCC 2998
[12] = test system: HCT-116
[13] = test system: HCT-15
[14] = test system: HL-60
[15] = test system: HOP-62
[16] = test system: HT-29
[17] = test system: IGROV-1
[18] = test system: K562
[19] = test system: KM12
[20] = test system: LOX IMVI
[21] = test system: M14
[22] = test system: MCF7
[23] = test system: MDA-MB-231
[24] = test system: MDA-MB-435
[25] = test system: MDA-N
[26] = test system: NCI-H226
[27] = test system: NCI-H23
[28] = test system: NCI-H460
[29] = test system: NCI/ADR-RES
[30] = test system: OVCAR-3
[31] = test system: OVCAR-4
[32] = test system: OVCAR-5
[33] = test system: OVCAR-8
[34] = test system: PC-3
[35] = test system: RPMI-8226
[36] = test system: RXF 393
[37] = test system: SF-268
[38] = test system: SF-295
[39] = test system: SF-539
[40] = test system: SK-MEL-28
[41] = test system: SK-MEL-2
[42] = test system: SK-MEL-5
[43] = test system: SK-OV-3
[44] = test system: SN12C
[45] = test system: SNB-19
[46] = test system: SNB-75
[47] = test system: SR
[48] = test system: SW-620
[49] = test system: T47D
[50] = test system: TK-10
[51] = test system: U-251
[52] = test system: UACC-257
[53] = test system: UACC-62
[54] = test system: HOP-92
[55] = test system: Malme-3M
[56] = test system: NCI-H522
[57] = test system: UO-31
[58] = test system: Hs-578T
[59] = test system: MOLT-4

c1ccc2c[n+](CCCC[n+]3ccc4ccccc4c3)ccc2c1
GI50 [1]: > 100 µM (inactive)
GI50 [2]: > 100 µM (inactive)
GI50 [3]: 1.13 µM (inactive)
GI50 [4]: > 100 µM (inactive)
GI50 [5]: > 100 µM (inactive)
GI50 [6]: > 100 µM (inactive)
GI50 [7]: > 100 µM (inactive)
GI50 [8]: > 100 µM (inactive)
GI50 [9]: > 100 µM (inactive)
GI50 [10]: > 100 µM (inactive)
GI50 [11]: > 100 µM (inactive)
GI50 [12]: > 100 µM (inactive)
GI50 [13]: > 100 µM
GI50 [14]: > 100 µM (inactive)
GI50 [15]: > 100 µM (inactive)
GI50 [16]: > 100 µM (inactive)
GI50 [17]: > 100 µM (inactive)
GI50 [18]: > 100 µM (inactive)
GI50 [19]: > 100 µM (inactive)
GI50 [20]: > 100 µM (inactive)
GI50 [21]: 1.12 µM (active)
GI50 [22]: > 100 µM (inactive)
GI50 [23]: > 100 µM (inactive)
GI50 [24]: > 100 µM (inactive)
GI50 [25]: > 100 µM (inactive)
GI50 [26]: > 100 µM (inactive)
GI50 [27]: > 100 µM (inactive)
GI50 [28]: > 100 µM (inactive)
GI50 [29]: > 100 µM (inactive)
GI50 [30]: > 100 µM (inactive)
GI50 [31]: > 100 µM (inactive)
GI50 [32]: > 100 µM (inactive)
GI50 [33]: > 100 µM (inactive)
GI50 [34]: > 100 µM (inactive)
GI50 [35]: > 100 µM (inactive)
GI50 [36]: > 100 µM (inactive)
GI50 [37]: > 100 µM (inactive)
GI50 [38]: > 100 µM (inactive)
GI50 [39]: > 100 µM (inactive)
GI50 [40]: > 100 µM (inactive)
GI50 [41]: > 100 µM (inactive)
GI50 [42]: > 100 µM (inactive)
GI50 [43]: > 100 µM (inactive)
GI50 [44]: > 100 µM (inactive)
GI50 [45]: 21.8 µM (inactive)
GI50 [46]: > 100 µM (inactive)
GI50 [47]: > 100 µM (inactive)
GI50 [48]: > 100 µM (inactive)
GI50 [49]: > 100 µM (inactive)
GI50 [50]: > 100 µM (inactive)
GI50 [51]: > 100 µM (inactive)
GI50 [52]: > 100 µM (inactive)
GI50 [53]: > 100 µM (inactive)

NCCC(=O)N[C@H](Cc1cc(O)c(O)c(SCC(NC(=O)CC[C@H](N)C(=O)O)C(=O)NCC(=O)O)c1)C(=O)O (some centres undefined)
GI50 [1]: > 50 µM (inactive)
GI50 [2]: > 50 µM (inactive)
GI50 [3]: > 50 µM (inactive)
GI50 [4]: > 50 µM (inactive)
GI50 [5]: > 50 µM (inactive)
GI50 [6]: > 50 µM (inactive)
GI50 [8]: > 50 µM (inactive)
GI50 [9]: > 50 µM (inactive)
GI50 [10]: > 50 µM (inactive)
GI50 [11]: > 50 µM (inactive)
GI50 [12]: > 50 µM (inactive)
GI50 [13]: > 50 µM
GI50 [15]: > 50 µM (inactive)
GI50 [54]: > 50 µM (inactive)
GI50 [16]: > 50 µM (inactive)
GI50 [17]: > 50 µM (inactive)
GI50 [18]: > 50 µM (inactive)
GI50 [19]: > 50 µM (inactive)
GI50 [21]: > 50 µM (inactive)
GI50 [22]: > 50 µM (inactive)
GI50 [23]: > 50 µM (inactive)
GI50 [24]: > 50 µM (inactive)
GI50 [25]: > 50 µM (inactive)
GI50 [55]: > 50 µM (inactive)
GI50 [26]: > 50 µM (inactive)
GI50 [27]: > 50 µM (inactive)
GI50 [28]: > 50 µM (inactive)
GI50 [56]: > 50 µM (inactive)
GI50 [29]: > 50 µM (inactive)
GI50 [31]: > 50 µM (inactive)
GI50 [32]: > 50 µM (inactive)
GI50 [34]: > 50 µM (inactive)
GI50 [35]: > 50 µM (inactive)
GI50 [36]: > 50 µM (inactive)
GI50 [37]: > 50 µM (inactive)
GI50 [38]: > 50 µM (inactive)
GI50 [40]: > 50 µM (inactive)
GI50 [41]: > 50 µM (inactive)
GI50 [42]: > 50 µM (inactive)
GI50 [43]: > 50 µM (inactive)
GI50 [44]: > 50 µM (inactive)
GI50 [45]: > 50 µM (inactive)
GI50 [46]: > 50 µM (inactive)
GI50 [48]: > 50 µM (inactive)
GI50 [50]: > 50 µM (inactive)
GI50 [51]: > 50 µM (inactive)
GI50 [52]: > 50 µM (inactive)
GI50 [53]: > 50 µM (inactive)
GI50 [57]: > 50 µM (inactive)

N#C/C(=C/NC(=S)NCc1ccccc1)C(N)=O
GI50 [1]: > 100 µM (inactive)
GI50 [2]: > 100 µM (inactive)
GI50 [3]: > 100 µM (inactive)
GI50 [4]: > 100 µM (inactive)
GI50 [6]: > 100 µM (inactive)
GI50 [7]: > 100 µM (inactive)
GI50 [8]: > 100 µM (inactive)
GI50 [9]: > 100 µM (inactive)
GI50 [10]: > 100 µM (inactive)
GI50 [11]: > 100 µM (inactive)
GI50 [12]: > 100 µM (inactive)
GI50 [13]: > 100 µM
GI50 [14]: > 100 µM (inactive)
GI50 [15]: > 100 µM (inactive)
GI50 [54]: > 100 µM (inactive)
GI50 [16]: > 100 µM (inactive)
GI50 [58]: > 100 µM (inactive)
GI50 [17]: > 100 µM (inactive)
GI50 [18]: > 100 µM (inactive)
GI50 [19]: > 100 µM (inactive)
GI50 [20]: > 100 µM (inactive)
GI50 [21]: > 100 µM (inactive)
GI50 [22]: > 100 µM (inactive)
GI50 [23]: > 100 µM (inactive)
GI50 [24]: > 100 µM (inactive)
GI50 [25]: > 100 µM (inactive)
GI50 [59]: > 100 µM (inactive)
GI50 [55]: > 100 µM (inactive)
GI50 [26]: > 100 µM (inactive)
GI50 [27]: > 100 µM (inactive)
GI50 [28]: > 100 µM (inactive)
GI50 [56]: > 100 µM (inactive)
GI50 [29]: > 100 µM (inactive)
GI50 [30]: 0.063 µM (active)
GI50 [31]: > 100 µM (inactive)
GI50 [32]: > 100 µM (inactive)
GI50 [33]: > 100 µM (inactive)
GI50 [34]: > 100 µM (inactive)
GI50 [35]: > 100 µM (inactive)
GI50 [36]: > 100 µM (inactive)
GI50 [37]: > 100 µM (inactive)
GI50 [38]: > 100 µM (inactive)
GI50 [39]: > 100 µM (inactive)
GI50 [40]: > 100 µM (inactive)
GI50 [41]: > 100 µM (inactive)
GI50 [42]: > 100 µM (inactive)
GI50 [43]: > 100 µM (inactive)
GI50 [44]: > 100 µM (inactive)
GI50 [45]: > 100 µM (inactive)
GI50 [46]: > 100 µM (inactive)
GI50 [47]: > 100 µM (inactive)
GI50 [48]: > 100 µM (inactive)
GI50 [49]: > 100 µM (inactive)
GI50 [51]: > 100 µM (inactive)
GI50 [52]: > 100 µM (inactive)
GI50 [53]: > 100 µM (inactive)
GI50 [57]: 50.1 µM (inactive)
